Results: patent US7598286B2, “[(1H-indazol-3-yl)methyl]phenols and (hydroxyphenyl)(1H-indazol-3-yl)methanones” (Wyeth, priority 2004, dated 2009)
Where two headings read alike, the source gives them in different places.

Columns and labels:
[1] = system: creatine kinase expression in Ad5-wt-hERα infected HAECT-1 cells; assay: ER/CK: creatine kinase expression in Ad5-wt-ER infected HAECT-1 cells; format: cell-based, human; conditions: for EC50: Homo sapiens; for ER/CK % Eff*: efficacy relative to the maximal stimulation observed with E2
Procedure: (§1) T-175 flasks of 100% confluent HAECT-1 cells (immortalized human aortic endothelial cells) were washed with 8 ml of HBSS (HEPES buffered saline solution) and infected for four hours with 6 ml of a 1:10 dilution of Ad5-wt-hERα virus (an adenovirus transfection vector that mediates CMV promoter driven expression of human ERα) in phenol red free Endothelial Cell Basal medium (Clonetics, San Diego Calif., Catalog # CC-3129) containing 0.25% bovine serum albumin (EBM-BSA). After four hours, cells were washed with EBM-BSA and incubated overnight in the same medium. Following overnight incubation, cells were washed with EBM-BSA and infected for 2 hours with 6 ml of a 1:10 dilution of Ad5-3×(NFκB).Luc virus (Adenovirus luciferase expression vector driven by 3 repeats of the MHC NFκb site 5′ to the thymidine kinase promoter) in EBM-BSA. After two hours, cells were washed and incubated at 34° C. for 1 hour. Cells were then washed, trypsinized, counted and resuspended in 95% FBS/5% dimethylsulfoxide at a concentration of 4×10^6 cells/ml, frozen as 1 or 5 ml aliquots in cryo-vials and stored at −150° C. Control (no ER infection) cells were processed as above without Ad5-wt-hERα virus infection.
(§2) ERα infected HAECT-1 cells or control cells were thawed, diluted 42× in warm EBM-BSA, plated into 96-well plates at 0.1 ml/well and incubated for 4 h at 34° C. Test compounds were added to the cells as 2× stocks in EBM-BSA containing 2 ng/ml IL-1β (R&D Systems) and plates were returned to the incubator (34° C.). After 15-20 h, 100 μl aliquots of media were removed from the cells and assayed for IL-6 content using a BioSource human IL-6 ELISA Kit. Cells were subsequently washed with 300 μl of Dulbecco's phosphate buffered saline and lysed in 50 μl of Cell Culture Lysis Reagent (Promega). Luciferase was determined on a Wallac Victor^2 Luminometer (Gaithersburg, Md.) using 10 μl of lysate and mixing with 100 μl of Promega Luciferase Assay reagent. Creatine kinase was determined from the rate of increase in A340 following addition of 100 μl of CK assay reagent (Sigma, cat. No 47-10) to the remainder of the cell lysate.
(§3) For IC50 and EC50 calculations, mean IL-6, luciferase or CK values versus log10 of the compound concentration were fitted to a four parameter logistic equation. The IC50/EC50 value, ‘Hill slope’, upper and lower limits of the curve were iteratively estimated.

[2] = system: NF-κB luciferase reporter in Ad5-wt-hERα infected HAECT-1 cells; assay: ER/NF-κB-luc: IL-1β induced NF-κB luciferase reporter in Ad5-wt-ER infected HAECT-1 cells; format: cell-based; conditions: Homo sapiens; for IC50: HAECT1, Ad5-wt-ER infected HAECT-1 cells, IL-1β, read-out: ER/NF-KB-luc IC50; for Emax: HAECT1, efficacy relative to the maximal inhibition observed with E2, read-out: ER/NF-KB-luc % Eff*
Procedure: as §1, §2, §3

[3] = system: TNF-α mRNA; assay: NF-κB target gene expression in liver of mice fed a high fat diet: TNFa; format: in vivo, C57BL/6 mice; conditions: 10 mg/kg
Procedure: (§4) Ovariectomized C57BL/6 mice (16-20 g) (Taconic) were separated into groups of 8. After 5-7 days of recuperation, the mice were fed a chow diet or an atherogenic diet (15.75% fat, 1.25% cholesterol and 0.5% sodium cholate) (Purina diet #21539). EE or test compound was administered once daily by gavage in a methylcellulose/tween vehicle (0.1 ml per mouse) for 5 weeks. At the end of the experimental period, the liver was collected and uterine wet weight was recorded.
(§5) Liver total RNA was prepared by using Trizol reagent (BRL). Estrogen and compound regulation of NF-κB target genes were verified by real time RT-PCR using an ABI PRISM 7700 Sequence Detection System according to the manufacturer's protocol (Applied Biosystems). The data was analyzed using the Sequence Detector v1.7 software (Applied Biosystems) and normalized to GAPDH using the Applied Biosystems primer set.
(§6) To determine the ability of estrogens to regulate the development of diet-induced inflammation in the liver, gene expression changes resulting from the atherogenic diet were monitored. Ovariectomized C57BL/6 mice were fed either a chow or atherogenic diet and treated daily with EE (0.01 mg/kg) or test compound (Table 2).

[4] = system: IL-6 expression in Ad5-wt-hERα infected HAECT-1 cells; assay: ER/IL-6: IL-6 expression (ELISA) in Ad5-wt-ER infected HAECT-1 cells; format: cell-based, human; conditions: for IC50: IL-1β; for ER/IL-6 % Eff: efficacy relative to the maximal inhibition observed with E2
Procedure: as §1, §2, §3

[5] = system: MHC invariant chain mRNA; assay: NF-κB target gene expression in liver of mice fed a high fat diet: MHC; format: in vivo, C57BL/6 mice; conditions: 10 mg/kg
Procedure: as §4, §5, §6

[6] = system: VCAM-1 mRNA; assay: NF-κB target gene expression in liver of mice fed a high fat diet: VCAM-1; format: in vivo, C57BL/6 mice; conditions: 10 mg/kg
Procedure: as §4, §5, §6

[7] = system: RANTES mRNA; assay: NF-κB target gene expression in liver of mice fed a high fat diet: RANTES; format: in vivo, C57BL/6 mice; conditions: 10 mg/kg
Procedure: as §4, §5, §6

[8] = Ad5-wt-ER infected HAECT-1 cells
[9] = HAECT1, read-out: ER/CK EC50 (nM)
[10] = once daily by gavage, 5 weeks, ovariectomized mice on atherogenic diet, liver RT-PCR
[11] = Homo sapiens, HAECT1, Ad5-wt-ER infected HAECT-1 cells

For `O=C(c1cccc(O)c1)c1nn(C2C=CCCC2)c2ccccc12` (centres unmarked) [Example 20, (1-cyclohex-2-en-1-yl-1H-indazol-3-yl)(3-hydroxyphenyl)methanone], the “ER/CK EC50 (nM)” value [1, 8] was “ia”, the IC50 [2] was 0.155 µM and the Emax [2] was 87%. It also gave a melting point of 140 to 141 °C.
In the case of `CCCn1nc(C(=O)c2cccc(O)c2)c2ccccc21` [Example 3, (3-hydroxyphenyl)(1-propyl-1H-indazol-3-yl)methanone], the EC50 [1, 9] is reported as 2640 nM, the “ER/CK % Eff*” value [1] is reported as 35% and the IC50 [2] is reported as 0.722 µM. It also gave an Emax [2] of 70%.
For `Oc1cccc(Cc2nn(C3CCCC3)c3ccccc23)c1` [Example 6, 3-[(1-cyclopentyl-1H-indazol-3-yl)methyl]phenol], the “ER/CK EC50 (nM)” value [1, 8] was “ia”, the IC50 [2] was 0.57 µM and the Emax [2] was 54%.
For `O=C(c1cccc(O)c1)c1nn(C2CCCC2)c2c(C(F)(F)F)cccc12` [Example 12, [1-cyclopentyl-7-(trifluoromethyl)-1H-indazol-3-yl](3-hydroxyphenyl)methanone], the EC50 [1, 9] was 139 nM, the “ER/CK % Eff*” value [1] was 32% and the IC50 [2] was 0.054 µM. For the same compound, the Emax [2] was 73% and the melting point was 152 °C.
For `O=C(c1cccc(O)c1)c1c2ccccc2nn1-c1ccc(Br)cc1` [Example 23, [2-(4-bromophenyl)-2H-indazol-3-yl](3-hydroxyphenyl)methanone], the “ER/CK EC50 (nM)” value [1, 8] was “ia”, the IC50 [2] was 0.082 µM and the Emax [2] was 79%.
For `COc1cccc(-n2nc(C(=O)c3cccc(O)c3)c3ccccc32)c1` [Example 22, (3-hydroxyphenyl)[1-(3-methoxyphenyl)-1H-indazol-3-yl]methanone], the “ER/CK EC50 (nM)” value [1, 8] was “ia”, the IC50 [2] was 0.475 µM and the Emax [2] was 75%.
With `O=C(c1cccc(O)c1)c1n[nH]c2c(C(F)(F)F)cccc12` [Example 10, (3-hydroxyphenyl)[7-(trifluoromethyl)-1H-indazol-3-yl]methanone] the “ER/CK EC50 (nM)” value [1, 8] was “ia”, the IC50 [2] was 0.593 µM and the Emax [2] was 88%.
`C/C=C/Cn1nc(C(=O)c2cccc(O)c2)c2ccccc21` gave a melting point of 75 to 78 °C.
For `C=CCn1nc(C(=O)c2cccc(O)c2)c2ccccc21` [Example 18, (1-allyl-1H-indazol-3-yl)(3-hydroxyphenyl)methanone], the “ER/CK EC50 (nM)” value [1, 8] was “ia”, the IC50 [2] was 1.24 µM and the Emax [2] was 92%.
`Oc1cccc(Cc2n[nH]c3ccccc23)c1` [Example 1, 3-[(1H-indazol-3-yl)methyl]phenol] gave a melting point of 170 to 172 °C.
In the case of `CC(C)n1nc(C(=O)c2ccc(O)cc2)c2cccc(C(F)(F)F)c21` [Example 9, (4-hydroxyphenyl)[1-isopropyl-7-(trifluoromethyl)-1H-indazol-3-yl]methanone], the “ER/CK EC50 (nM)” value [1, 8] is reported as “ia”, the IC50 [2] is reported as 0.107 µM and the Emax [2] is reported as 80%.
Compound `CC(C)=CCn1nc(C(=O)c2cccc(O)c2)c2ccccc21` has a melting point of 92 to 94 °C.
For `O=C(c1ccc(O)cc1)c1n[nH]c2c(C(F)(F)F)cccc12` [Example 7, (4-hydroxyphenyl)[7-(trifluoromethyl)-1H-indazol-3-yl]methanone], the “ER/CK EC50 (nM)” value [1, 8] was “ia”, the IC50 [2] was 1.01 µM and the Emax [2] was 43%.
In the case of `C=C(C)Cn1nc(C(=O)c2cccc(O)c2)c2ccccc21` [Example 14, (3-hydroxyphenyl)[1-(2-methylprop-2-enyl)-1H-indazol-3-yl]methanone], the “ER/CK EC50 (nM)” value [1, 8] is reported as “ia”, the IC50 [2] is reported as 0.388 µM and the Emax [2] is reported as 103%. The melting point was 75 to 78 °C.
With `O=C(c1cccc(O)c1)c1nn(C2CCCC2)c2ccccc12` [Example 4, (1-cyclopentyl-1H-indazol-3-yl)(3-hydroxyphenyl)methanone] the EC50 [1, 9] was 1330 nM, the “ER/CK % Eff*” value [1] was 57% and the TNFa % inhib [3, 10] was 45%. For the same compound, the “TNFa (eff %)” value ([3]; value in parentheses) was 100%, the IC50 [4, 11] was 0.066 µM and the “ER/IL-6 % Eff” value [4] was 109%. For the same compound, the MHC % inhib [5, 10] was 60%, the “MHC (eff %)” value ([5]; value in parentheses) was 138% and the VCAM-1 % inhib [6, 10] was 59%. The “VCAM-1 (eff %)” value ([6]; value in parentheses) was 100%, the IC50 [2] was 0.17 µM and the Emax [2] was 77%. For the same compound, the RANTES % inhib [7, 10] was 67% and the “RANTES (eff %)” value ([7]; value in parentheses) was 151%.
For `C[C@]12CC[C@@H]3c4ccc(O)cc4CC[C@H]3[C@@H]1CC[C@@H]2O` [Example E2, 17β-estradiol, reference compound], the EC50 ([1]; HAECT1, Ad5-wt-ER infected HAECT-1 cells, read-out: ER/CK EC50) was 5.8 nM, the “ER/CK % Eff*” value [1] was 100% and the IC50 [4, 8] was 0.0017 µM. For the same compound, the IC50 [4, 11] was ~0.001 µM, the “ER/IL-6 % Eff” value [4] was 100% and the IC50 [2] was ~0.001 µM. The Emax [2] was 100%.
With `CCCn1nc(C(=O)c2cccc(O)c2)c2cccc(C(F)(F)F)c21` [Example 11, (3-hydroxyphenyl)[1-propyl-7-(trifluoromethyl)-1H-indazol-3-yl]methanone] the “ER/CK EC50 (nM)” value [1, 8] was “ia”, the IC50 [2] was 0.198 µM and the Emax [2] was 82%. The melting point was 118 °C.
In the case of `O=C(c1cccc(O)c1)c1nn(Cc2ccccc2)c2ccccc12` [Example 19, (1-benzyl-1H-indazol-3-yl)(3-hydroxyphenyl)methanone], the “ER/CK EC50 (nM)” value [1, 8] is reported as “ia”, the IC50 [2] is reported as 0.409 µM and the Emax [2] is reported as 92%.
With `O=C(c1ccc(O)cc1)c1nn(C2CCCC2)c2c(C(F)(F)F)cccc12` [Example 8, [1-cyclopentyl-7-(trifluoromethyl)-1H-indazol-3-yl](4-hydroxyphenyl)methanone] the “ER/CK EC50 (nM)” value [1, 8] was “ia”, the IC50 [2] was 0.094 µM and the Emax [2] was 87%. For the same compound, the melting point was 225 to 226 °C.
With `CC(C)Cn1nc(C(=O)c2cccc(O)c2)c2ccccc21` [Example 17, (3-hydroxyphenyl)(1-isobutyl-1H-indazol-3-yl)methanone] the EC50 [1, 9] was 1570 nM, the “ER/CK % Eff*” value [1] was 51% and the IC50 [2] was 0.71 µM. It also gave an Emax [2] of 100% and a melting point of 108 to 110 °C.
For `CC(C)n1nc(C(=O)c2cccc(O)c2)c2ccccc21` [Example 5, (3-hydroxyphenyl)(1-isopropyl-1H-indazol-3-yl)methanone], the EC50 [1, 9] was 1790 nM, the “ER/CK % Eff*” value [1] was 55% and the IC50 [2] was 1.07 µM. For the same compound, the Emax [2] was 83%.
With `CC(C)n1nc(C(=O)c2cccc(O)c2)c2cccc(C(F)(F)F)c21` [Example 13, (3-hydroxyphenyl)[1-isopropyl-7-(trifluoromethyl)-1H-indazol-3-yl]methanone] the “ER/CK EC50 (nM)” value [1, 8] was “ia”, the IC50 [2] was 0.063 µM and the Emax [2] was 85%. The melting point was 145 °C.
